In this data set the test system is Oryzias latipes. In words: Ichthyotoxicity against Oryzias latipes at 20 ug/mL. The format is organism-based. To be noted: in vivo.

Take `C/C1=C/C[C@@H](C(C)C)/C=C/[C@](C)(O)CC/C=C(\C)CC(=O)C1` [SARTONE E]: the Activity entry is listed as “Non-toxic”.

The values are drawn from ChEMBL document CHEMBL1144075, “New cembranes from the soft coral sarcophyton species” (J Nat Prod, 1999).
